Assay [1] has as its system secretion of interferon-beta from THP1 cells. In words: IFN-β secretion in THP1 cell culture (5 h). To be noted: Homo sapiens, THP-1, 5 h, 30 uM cGAMP = 100%; for activation at 30 µM: compound at 30 μM, read-out: % Effect at 30 μM relative to 2′3′-cGAMP; for activation at 3 µM: compound at 3 uM, read-out: % Effect relative to 2′3′-cGAMP (@ 3 uM). Type of assay: cell-based. Put shortly: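 IFN-β in supernatant measured by AlphaLISA after a 5 h, 37 °C incubation of THP1 cells with compound (10 concentrations, 30000 down to 1.5 nM, 0.3% DMSO) in low-serum RPMI. Values scaled between DMSO and 30 uM cGAMP controls; 4-parameter curve fit yields EC50.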

The target in assay [2] is T1, full-length WT STING (Homo sapiens, UniProt Q86WV6, H232R).
T1 construct: AviTag (after gg linker) (C); HRV3C cleavage site (after gs linker) (C); HIS8 (C); made in house; host or cells: Trichoplusia ni (Hi-Five) insect cells infected with baculovirus (virus generated and amplified in Sf21 cells); used as a washed membrane preparation
In words: 3H-cGAMP filtration binding assay (WT STING). The settings on record: for EC50: competition with tritiated cGAMP, WT STING membrane. Put shortly: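 EC50 values come from 4-parameter fits of remaining filter-bound tritium versus log concentration (10-point, 1:3 dilution). Insect-cell membranes carrying full-length WT STING were incubated 60 min at RT with compound and tritiated cGAMP (16 nM working stock) before filtration.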

For assay [3], the target named is T2, full-length HAQ STING (Homo sapiens, UniProt Q86WV6, G230A/H232R/R293Q/R71H).
T2 construct: AviTag (after GG linker) (C); HRV3C cleavage site (after GS linker) (C); HIS8 (C); made in house; host or cells: Trichoplusia ni (Hi-Five) insect cells infected with baculovirus (virus generated and amplified in Sf21 cells); used as a washed membrane preparation
Kind of assay: 3H-cGAMP filtration binding assay (HAQ STING). The settings on record: competition with tritiated cGAMP, HAQ STING membrane. Put shortly: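 Hi-Five (T. ni) membranes overexpressing the STING variant (2.2 ug/ml working) preincubated with compound 60 min at RT in PBS, then [3H]cGAMP (8 nM working stock) added for 60 min at RT. Bound radioactivity captured on GF/B filters and counted by scintillation; EC50 from 4-parameter fit of control-normalized activity.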

T1 sequence (Q86WV6 with tags, fused parts or gaps H232R): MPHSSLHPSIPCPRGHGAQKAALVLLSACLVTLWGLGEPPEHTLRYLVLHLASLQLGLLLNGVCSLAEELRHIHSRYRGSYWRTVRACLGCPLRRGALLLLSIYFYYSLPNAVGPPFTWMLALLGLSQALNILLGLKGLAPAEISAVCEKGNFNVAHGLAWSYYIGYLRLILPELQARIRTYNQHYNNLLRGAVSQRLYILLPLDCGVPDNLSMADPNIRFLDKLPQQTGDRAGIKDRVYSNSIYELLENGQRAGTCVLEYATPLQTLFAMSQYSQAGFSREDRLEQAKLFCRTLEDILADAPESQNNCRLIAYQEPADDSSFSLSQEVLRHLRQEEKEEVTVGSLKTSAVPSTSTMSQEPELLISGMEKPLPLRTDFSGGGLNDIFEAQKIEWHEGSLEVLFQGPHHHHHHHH
T2 sequence (Q86WV6 with tags, fused parts or gaps R71H/G230A/H232R/R293Q): as the sequence (Q86WV6 with tags, fused parts or gaps H232R) above, with R71H, G230A, R293Q counted along it

`COc1cc2sc(C(=O)C[C@H](C)C(=O)O)cc2cc1OCCCOc1c(OC)cc2sc(CC[C@H](C)C(=O)O)cc2c1F` [Example 169, (S)-4-(5-(3-((2-((S)-3-carboxybutyl)-4-fluoro-6-methoxybenzo[b]thiophen-5-yl)oxy)propoxy)-6-methoxybenzo[b]thiophen-2-yl)-2-methyl-4-oxobutanoic acid]: the activation at 30 µM in assay [1] is 64%. In addition, the EC50 came out at 18 nM in assay [2] and 1 nM in assay [3].
The corresponding values for `COc1cc2sc(C(=O)C[C@H](C)C(=O)O)cc2cc1OCCCOc1c(OC)cc2sc(C(=O)[C@@H]3CC[C@H]3C(=O)O)cc2c1F` [Example 170, trans-2-(5-(3-((2-((S)-3-carboxybutanoyl)-6-methoxybenzo[b]thiophen-5-yl)oxy)propoxy)-4-fluoro-6-methoxybenzo[b]thiophene-2-carbonyl)cyclobutanecarboxylic acid] are 86%, 3 nM and 1 nM.
In the same order, the values of `COc1cc2cc(C(=O)C[C@H](C)C(=O)O)sc2cc1OCCCOc1c(OC)cc2sc(C(=O)[C@@H]3CC[C@H]3C(=O)O)cc2c1F` [Example 171, trans-2-(5-(3-((2-((S)-3-carboxybutanoyl)-5-methoxybenzo[b]thiophen-6-yl)oxy)propoxy)-4-fluoro-6-methoxybenzo[b]thiophene-2-carbonyl)cyclobutanecarboxylic acid] are 97%, 59 nM and 9 nM.
For the compound `COc1cc2sc(C(=O)C[C@H](C)C(=O)O)cc2c(Cl)c1OCCCCOc1c(OC)cc2sc(C(=O)C[C@H](C)C(=O)O)cc2c1Cl` [Example 172, (2S,2′S)-4,4′-(5,5′-(butane-1,4-diylbis(oxy))bis(4-chloro-6-methoxybenzo[b]thiophene-5,2-diyl))bis(2-methyl-4-oxobutanoic acid)], the activation at 3 µM in assay [1] stood at 16%. Further, the EC50 in assay [2] came to 15100 nM; in assay [3], 454 nM.
As to `COc1cc2sc(C(=O)CCC(=O)O)cc2nc1CCCOc1c(OC)cc2sc(C(=O)CCC(=O)O)cc2c1F` [Example 173], the activation at 30 µM in assay [1] worked out at 127%. The EC50 in assay [2] came to 3 nM; in assay [3] it was 1 nM.
Consider `COc1cc2sc(C(=O)CCC(=O)O)cc2nc1CCCOc1c(OC)cc2sc(C(=O)C[C@H](C)C(=O)O)cc2c1F` [Example 174, (S)-4-(5-(3-(2-(3-carboxypropanoyl)-6-methoxythieno[3,2-b]pyridin-5-yl)propoxy)-4-fluoro-6-methoxybenzo[b]thiophen-2-yl)-2-methyl-4-oxobutanoic acid], for which the activation at 30 µM in assay [1] was 88%. Also, the EC50 in assay [2] and in assay [3] was 1 nM each time.
Turning to `COc1cc2sc(C(=O)CCC#N)cc2cc1CCCc1cc2cc(C(=O)CCC#N)sc2cc1OC` [Example 175, 4,4′-(Propane-1,3-diylbis(6-methoxybenzo[b]thiophene-5,2-diyl))bis(4-oxobutanenitrile)], the activation at 30 µM in assay [1] turned out to be 13%. 20 µM produced 46% inhibition in assay [2] (at 20,000 nM compound). The same compound showed an EC50 in assay [3] of 4020 nM.
`COc1cc2sc(C(=O)C[C@H](C)C(=O)O)cc2cc1NCCCOc1c(OC)cc2sc(C(=O)C[C@H](C)C(=O)O)cc2c1F` [Example 176, (S)-4-(5-((3-((2-((S)-3-Carboxybutanoyl)-4-fluoro-6-methoxybenzo [b]thiophen-5-yl)oxy)propyl)amino)-6-methoxybenzo[b]thiophen-2-yl)-2-methyl-4-oxobutanoic acid]: the activation at 30 µM in assay [1] was 44%. Moreover, the EC50 in assay [2] was 2 nM; in assay [3], 1 nM.
The corresponding values for `COc1cc2sc(C(=O)CCC(=O)O)cc2cc1CCCNc1cc2cc(C(=O)C[C@H](C)C(=O)O)sc2cc1OC` [Example 177, (S)-4-(5-((3-(2-(3-carboxypropanoyl)-6-methoxybenzo[b]thiophen-5-yl)propyl)amino)-6-methoxybenzo[b]thiophen-2-yl)-2-methyl-4-oxobutanoic acid] are 80%, 720 nM and 68 nM.
The corresponding values for `COc1cc2sc(C(=O)C[C@H](C)C(=O)O)cc2cc1OCCCOc1c(OC)cc2sc(C(=O)C[C@H](C)C(=O)NS(=O)(=O)N(C)C)cc2c1F` [Example 178, (S)-4-(5-(3-((2-((S)-4-((N,N-Dimethylsulfamoyl)amino)-3-methyl-4-oxobutanoyl)-4-fluoro-6-methoxybenzo[b]thiophen-5-yl)oxy)propoxy)-6-methoxybenzo[b]thiophen-2-yl)-2-methyl-4-oxobutanoic acid] are 107%, 31 nM and 4 nM.
As to `COc1cc2sc(C(=O)C[C@H](C)C(=O)O)cc2cc1OCCCOc1c(OC)cc2sc(C(=O)C[C@H](C)C(=O)NS(C)(=O)=O)cc2c1F` [Example 179, (S)-4-(5-(3-((4-fluoro-6-methoxy-2-((S)-3-methyl-4-(methylsulfonamido)-4-oxobutanoyl)-benzo[b]thiophen-5-yl)oxy)propoxy)-6-methoxybenzo[b]thiophen-2-yl)-2-methyl-4-oxobutanoic acid], the activation at 30 µM in assay [1] came out at 79%. Besides, the EC50 in assay [2] and in assay [3] was 1 nM in each case.
Turning to `COc1cc2sc(C(=O)C[C@H](C)C(=O)O)cc2c(F)c1OCCCOc1cc2cc(C(=O)C[C@H](C)C(=O)O)sc2cc1O` [Example 180, (S)-4-(5-(3-((2-((S)-3-Carboxybutanoyl)-4-fluoro-6-methoxybenzo[b]thiophen-5-yl)oxy)propoxy)-6-hydroxybenzo [b]thiophen-2-yl)-2-methyl-4-oxobutanoic acid], the activation at 3 µM in assay [1] was determined as 121%. Moreover, the EC50 in assay [2] and in assay [3] was 1 nM throughout.
`COc1cc2sc(CC[C@H](C)C(=O)O)cc2c(F)c1OCCCOc1cc2cc(C(=O)C[C@H](C)C(=O)O)sc2cc1O` [Example 181, (S)-4-(5-(3-((2-((S)-3-carboxybutyl)-4-fluoro-6-methoxybenzo[b]thiophen-5-yl)oxy)propoxy)-6-hydroxybenzo[b]thiophen-2-yl)-2-methyl-4-oxobutanoic acid]: in assay [1], the activation at 3 µM was 104%. The results for the EC50 in assay [2] and in assay [3] were 177 nM and 5 nM, respectively.
The corresponding values for `COc1cc2sc(C(=O)C[C@H](C)C(=O)O)cc2c(Cl)c1OCCCOc1cc2cc(C(=O)C[C@H](C)C(=O)O)sc2cc1O` [Example 182, (S)-4-(5-(3-((2-((S)-3-carboxybutanoyl)-4-chloro-6-methoxybenzo[b]thiophen-5-yl)oxy)propoxy)-6-hydroxybenzo[b]thiophen-2-yl)-2-methyl-4-oxobutanoic acid] are 147%, 2 nM and 1 nM.
The corresponding values for `COc1cc2sc(C(=O)C[C@H](C)C(=O)O)cc2cc1OCCCOc1c(O)cc2sc(C(=O)C[C@H](C)C(=O)O)cc2c1Cl` [Example 183, (S)-4-(5-(3-((2-((S)-3-carboxybutanoyl)-4-chloro-6-hydroxybenzo[b]thiophen-5-yl)oxy)propoxy)-6-methoxybenzo[b]thiophen-2-yl)-2-methyl-4-oxobutanoic acid] are 127%, 3 nM and 1 nM.
As to `COc1cc2sc(CC[C@H](C)C(=O)O)cc2cc1OCCCOc1c(O)cc2sc(C(=O)C[C@H](C)C(=O)O)cc2c1Cl` [Example 184, (S)-4-(5-(3-((2-((S)-3-carboxybutyl)-6-methoxybenzo[b]thiophen-5-yl)oxy)propoxy)-4-chloro-6-hydroxybenzo[b]thiophen-2-yl)-2-methyl-4-oxobutanoic acid], the activation at 3 µM in assay [1] came to 10%. In assay [2] (at 2,000 nM compound), this compound registered an inhibition at 2 µM of 29%. In addition, in assay [3], the EC50 amounted to 353 nM.
On to `COc1cc2sc(C(=O)C[C@H](C)C(=O)O)cc2c(F)c1OCCCOc1c(O)cc2sc(C(=O)C[C@H](C)C(=O)O)cc2c1Cl` [Example 185, (S)-4-(5-(3-((2-((S)-3-carboxybutanoyl)-4-chloro-6-hydroxybenzo[b]thiophen-5-yl)oxy)propoxy)-4-fluoro-6-methoxybenzo[b]thiophen-2-yl)-2-methyl-4-oxobutanoic acid], for which the activation at 3 µM in assay [1] came to 122%. Moreover, the EC50 in assay [2] and in assay [3] was 1 nM in each case.
Regarding `COc1cc2sc(CC[C@H](C)C(=O)O)cc2c(F)c1OCCCOc1c(O)cc2sc(C(=O)C[C@H](C)C(=O)O)cc2c1Cl` [Example 186, (S)-4-(5-(3-((2-((S)-3-carboxybutyl)-4-fluoro-6-methoxybenzo[b]thiophen-5-yl)oxy)propoxy)-4-chloro-6-hydroxybenzo[b]thiophen-2-yl)-2-methyl-4-oxobutanoic acid], the activation at 3 µM in assay [1] turned out to be 56%. The results for the concentration for a half-maximal effect (EC50) in assay [2] and in assay [3] were 756 nM and 133 nM, respectively.

Source of the values: patent US10793557B2, “Sting agonist compounds” (Merck Sharp & Dohme Corp., priority 2018, dated 2020).
